Assay results: US11840528B2 (Hoffmann-La Roche Inc., priority 2018, dated 2023)

Legend:
h-GABA-A α5β3γ2 [1] = target: T1, h-GABA-A α5β3γ2 (Homo sapiens, UniProt P18507+P31644); experiment: [3H]flumazenil competition binding assay, membranes of HEK293 cells expressing GABAA receptors; conditions: displacement of [3H]-Flumazenil 0.5 nM, HEK293 cells expressing human receptors, mean of two determinations; Table 1
In short: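 Membranes from HEK293 cells transiently expressing human α5β3γ2 GABAA receptors, in Krebs-tris buffer pH 7.5, competed against [3H]flumazenil for 1 hour at 4° C to equilibrium. Bound radioactivity collected on GF/C filters and counted by liquid scintillation; Ki values are means of two determinations.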

h-GABA-A α5β3γ2 [2] = target: T1, h-GABA-A α5β3γ2; experiment: Two-electrode voltage clamp electrophysiology in Xenopus laevis oocytes expressing GABAA receptors, modulation of GABA EC20 current; type: cell-based; parameters: host or cells: Xenopus laevis oocytes micro-injected with RNA transcripts of the subunits; conditions: Table 1; for Efficacy (GABA) %: % modulation of GABA EC20 = 100*(Fold increase-1); for Fold increase h-GABA-A α5β3γ2 oocyte: test compound at approx. 30 fold its Ki, GABA at EC20
In short: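 Human α5β3γ2 GABAA receptors were expressed in Xenopus oocytes by RNA injection, with γ2 RNA 5–10-fold higher, and recorded 3–5 days later by two-electrode voltage clamp at −80 mV at room temperature. The test compound, at about 30× its Ki, was co-applied during a second GABA EC20 pulse. Efficacy is the extremum of the point-by-point ratio to the first response, expressed as 100*(Fold increase−1).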

| Structure (SMILES) | Ki (h-GABA-A α5β3γ2 [1]) | Efficacy (GABA) % (h-GABA-A α5β3γ2 [2]) | Fold increase h-GABA-A α5β3γ2 oocyte (h-GABA-A α5β3γ2 [2]) |
| --- | --- | --- | --- |
| Cc1onc(-c2ccc(Cl)nc2)c1Cn1ncc(N2CCC3(CCOCC3)CC2)cc1=O [Example 248, 2-((3-(6-chloropyridin-3-yl)-5-methylisoxazol-4-yl)methyl)-5-(3-oxa-9-azaspiro[5.5]undecan-9-yl)pyridazin-3(2H)-one] | 24.6 nM | 107% | 2.07 |
| Cc1onc(-c2ncc(C(F)(F)F)cn2)c1Cn1ncc(N2CC(OC3CC3)C2)cc1=O [Example 249, 5-(3-cyclopropoxyazetidin-1-yl)-2-((5-methyl-3-(5-(trifluoromethyl)pyrimidin-2-yl)isoxazol-4-yl)methyl)pyridazin-3(2H)-one] | 2.2 nM | 60% | 1.6 |
| Cc1onc(-c2ncc(C(F)(F)F)cn2)c1Cn1ncc(N2CC3(C2)CC(F)(F)CO3)cc1=O [Example 250, 5-(7,7-difluoro-5-oxa-2-azaspiro[3.4]octan-2-yl)-2-((5-methyl-3-(5-(trifluoromethyl)pyrimidin-2-yl)isoxazol-4-yl)methyl)pyridazin-3(2H)-one] | 3.3 nM | 46% | 1.46 |
| Cc1onc(-c2ccc(Cl)nc2)c1Cn1ncc(N2CC(OC(F)(F)F)C2)cc1=O [Example 251, 2-((3-(6-chloropyridin-3-yl)-5-methylisoxazol-4-yl)methyl)-5-(3-(trifluoromethoxy)azetidin-1-yl)pyridazin-3(2H)-one] | 16.6 nM | 83% | 1.83 |
| COC1CN(c2cnn(Cc3c(-c4ccc(Cl)nn4)noc3C)c(=O)c2)C1 [Example 252, 2-((3-(6-chloropyridazin-3-yl)-5-methylisoxazol-4-yl)methyl)-5-(3-methoxyazetidin-1-yl)pyridazin-3(2H)-one] | 4.2 nM | 86% | 1.86 |
| Cc1onc(-c2ccc(Cl)nc2)c1Cn1ncc(N2CC(OC3CCC3)C2)cc1=O [Example 253, 2-((3-(6-chloropyridin-3-yl)-5-methylisoxazol-4-yl)methyl)-5-(3-cyclobutoxyazetidin-1-yl)pyridazin-3(2H)-one] | 31 nM | 156% | 2.56 |
| Cc1onc(-c2ccc(Cl)nc2)c1Cn1ncc(N2CC(OCC(F)(F)F)C2)cc1=O [Example 254, 2-((3-(6-chloropyridin-3-yl)-5-methylisoxazol-4-yl)methyl)-5-(3-(2,2,2-trifluoroethoxy)azetidin-1-yl)pyridazin-3(2H)-one] | 27.6 nM | 147% | 2.47 |
| Cc1onc(-c2ccc(Cl)nc2)c1Cn1ncc(N2CC(OC(F)F)C2)cc1=O [Example 255, 2-((3-(6-chloropyridin-3-yl)-5-methylisoxazol-4-yl)methyl)-5-(3-(difluoromethoxy)azetidin-1-yl)pyridazin-3(2H)-one] | 14.6 nM | 99% | 1.99 |
| Cc1onc(-c2ccc(Cl)nc2)c1Cn1ncc(N2CCC3(CCCO3)CC2)cc1=O [Example 256, 2-((3-(6-chloropyridin-3-yl)-5-methylisoxazol-4-yl)methyl)-5-(1-oxa-8-azaspiro[4.5]decan-8-yl)pyridazin-3(2H)-one] | 45.4 nM | 126% | 2.26 |
| Cc1onc(-c2ccc(Cl)nc2)c1Cn1ncc(N2CC3(CCOCC3)C2)cc1=O [Example 257, 2-((3-(6-chloropyridin-3-yl)-5-methylisoxazol-4-yl)methyl)-5-(7-oxa-2-azaspiro[3.5]nonan-2-yl)pyridazin-3(2H)-one] | 36.6 nM | 108% | 2.08 |
| Cc1onc(-c2ccc(Cl)nc2)c1Cn1ncc(N2CCC3(CC2)COC3)cc1=O [Example 258, 2-((3-(6-chloropyridin-3-yl)-5-methylisoxazol-4-yl)methyl)-5-(2-oxa-7-azaspiro[3.5]nonan-7-yl)pyridazin-3(2H)-one] | 34.3 nM | 126% | 2.26 |
| Cc1ccc(-c2noc(C3CC3)c2Cn2ncc(N3CC4(CCCCO4)C3)cc2=O)nn1 [Example 259, 2-[[5-cyclopropyl-3-(6-methylpyridazin-3-yl)isoxazol-4-yl]methyl]-5-(5-oxa-2-azaspiro[3.5]nonan-2-yl)pyridazin-3-one] | 36.2 nM | 193% | 2.93 |
| Cc1onc(-c2ccc(C3CC3)nc2)c1Cn1ncc(N2CC3(C2)CC(F)(F)CO3)cc1=O [Example 260, 2-((3-(6-cyclopropylpyridin-3-yl)-5-methylisoxazol-4-yl)methyl)-5-(7,7-difluoro-5-oxa-2-azaspiro[3.4]octan-2-yl)pyridazin-3(2H)-one] | 3.7 nM | 123% | 2.23 |
| Cc1ccc(-c2noc(C)c2Cn2ncc(N3CC[C@@H](OC(C)(C)C)C3)cc2=O)nn1 [Example 261, 5-[(3R)-3-tert-butoxypyrrolidin-1-yl]-2-[[5-methyl-3-(6-methylpyridazin-3-yl)isoxazol-4-yl]methyl]pyridazin-3-one] | 3.6 nM | 77% | 1.77 |
| COC1(C)CCN(c2cnn(Cc3c(-c4ccc(Cl)nc4)noc3C)c(=O)c2)CC1 [Example 262, 2-((3-(6-chloropyridin-3-yl)-5-methylisoxazol-4-yl)methyl)-5-(4-methoxy-4-methylpiperidin-1-yl)pyridazin-3(2H)-one] | 35.5 nM | 216% | 3.16 |
| Cc1onc(-c2ccc(Cl)nc2)c1Cn1ncc(N2CCN(c3ccnnc3)CC2)cc1=O [Example 263, 2-((3-(6-chloropyridin-3-yl)-5-methylisoxazol-4-yl)methyl)-5-(4-(pyridazin-4-yl)piperazin-1-yl)pyridazin-3(2H)-one] | 4.2 nM | 205% | 3.05 |
| Cc1ccc(-c2noc(C)c2Cn2ncc(N3CC(OC(C)(C)C(F)(F)F)C3)cc2=O)nn1 [Example 264, 2-[[5-methyl-3-(6-methylpyridazin-3-yl)isoxazol-4-yl]methyl]-5-[3-(2,2,2-trifluoro-1,1-dimethyl-ethoxy)azetidin-1-yl]pyridazin-3-one] | 3 nM | 93% | 1.93 |
| CCOC1CN(c2cnn(Cc3c(-c4ccc(C)nc4)noc3C)c(=O)c2Cl)C1 [Example 268, 4-chloro-5-(3-ethoxyazetidin-1-yl)-2-((5-methyl-3-(6-methylpyridin-3-yl)isoxazol-4-yl)methyl)pyridazin-3(2H)-one] | 16.6 nM | 184% | 2.84 |
| Cc1onc(-c2ccc(Cl)nn2)c1Cn1ncc(N2CC3(C2)CC(F)(F)CO3)cc1=O [Example 269, 2-((3-(6-chloropyridazin-3-yl)-5-methylisoxazol-4-yl)methyl)-5-(7,7-difluoro-5-oxa-2-azaspiro[3.4]octan-2-yl)pyridazin-3(2H)-one] | 1.4 nM | 70% | 1.7 |
